Source: article PMC11667666, “Light-Driven Hybrid Nanoreactor Harnessing the Synergy of Carboxysomes and Organic Frameworks for Efficient Hydrogen Production” (ACS Catalysis, 2024)

Target: T1, recombinant α-carboxysome shell (Halothiobacillus neapolitanus, UniProt P45688+P45689+P45690)
T1 construct: gene csoS1A; whole self-assembled multi-paralog shell (about 90 nm) from pBAD-cso-2 in E. coli; CsoS1 hexamers, CsoS4 pentamers, CsoS2 linker; with Carboxysome shell vertex protein CsoS4A; Carboxysome shell vertex protein CsoS4B; Carboxysome assembly protein CsoS2
Experiment: isothermal titration calorimetry
Format: binding
Conditions: TBAP (50 μM) titrated into whole shell (3.75 μM); 20 mM Tris-HCl pH 8.0, 150 mM NaCl; multi-protein particle, site not resolved by ITC

T1 sequence (O85044 whole entry): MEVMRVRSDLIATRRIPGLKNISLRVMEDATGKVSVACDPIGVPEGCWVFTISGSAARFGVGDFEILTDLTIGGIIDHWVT
T1 sequence (P45688 whole entry): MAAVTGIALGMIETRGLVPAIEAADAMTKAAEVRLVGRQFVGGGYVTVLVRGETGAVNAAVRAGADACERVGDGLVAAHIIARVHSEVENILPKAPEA
T1 sequence (O85041 whole entry, further chain): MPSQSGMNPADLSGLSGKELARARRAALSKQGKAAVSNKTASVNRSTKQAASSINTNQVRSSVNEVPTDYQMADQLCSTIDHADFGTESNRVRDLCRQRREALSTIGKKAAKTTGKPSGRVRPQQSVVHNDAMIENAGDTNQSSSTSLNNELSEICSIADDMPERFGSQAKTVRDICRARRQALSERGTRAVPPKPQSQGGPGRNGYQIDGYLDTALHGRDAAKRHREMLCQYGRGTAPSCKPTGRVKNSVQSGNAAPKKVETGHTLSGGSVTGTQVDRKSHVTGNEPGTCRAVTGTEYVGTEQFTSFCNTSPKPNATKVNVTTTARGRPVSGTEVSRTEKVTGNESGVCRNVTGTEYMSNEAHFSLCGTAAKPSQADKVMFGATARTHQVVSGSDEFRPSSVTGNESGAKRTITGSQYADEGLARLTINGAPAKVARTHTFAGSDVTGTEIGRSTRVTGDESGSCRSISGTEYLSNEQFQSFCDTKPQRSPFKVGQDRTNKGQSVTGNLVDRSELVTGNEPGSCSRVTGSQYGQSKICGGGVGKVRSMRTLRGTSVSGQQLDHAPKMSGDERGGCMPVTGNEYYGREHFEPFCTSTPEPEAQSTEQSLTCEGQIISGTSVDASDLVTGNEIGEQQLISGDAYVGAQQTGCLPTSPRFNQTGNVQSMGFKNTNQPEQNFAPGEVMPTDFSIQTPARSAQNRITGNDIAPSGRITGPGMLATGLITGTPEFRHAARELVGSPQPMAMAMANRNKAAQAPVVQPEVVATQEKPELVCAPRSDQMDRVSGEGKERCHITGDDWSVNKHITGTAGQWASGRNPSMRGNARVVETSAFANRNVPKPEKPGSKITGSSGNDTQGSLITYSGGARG
T1 sequence (O85043 whole entry, further chain): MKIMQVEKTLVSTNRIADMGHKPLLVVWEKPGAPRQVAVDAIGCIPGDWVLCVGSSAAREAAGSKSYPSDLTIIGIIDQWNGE
T1 sequence (P45689 2-98): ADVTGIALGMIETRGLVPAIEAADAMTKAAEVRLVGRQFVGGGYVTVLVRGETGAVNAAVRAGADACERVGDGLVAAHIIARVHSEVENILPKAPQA
T1 sequence (P45690 whole entry): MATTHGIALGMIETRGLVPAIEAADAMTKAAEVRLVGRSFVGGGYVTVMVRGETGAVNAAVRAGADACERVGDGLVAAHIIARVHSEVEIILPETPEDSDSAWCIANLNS

O=C(O)c1ccc(-c2cc(-c3ccc(C(=O)O)cc3)c3ccc4c(-c5ccc(C(=O)O)cc5)cc(-c5ccc(C(=O)O)cc5)c5ccc2c3c54)cc1 [TBAP, 1,3,6,8-tetra(4′-carboxyphenyl)pyrene]
Kd: 524 nM
